Laboratory results: PubChem BioAssay AID1996
≈ marks a conversion by molar mass, not a printed value.

Details: buffer; pH 7.4; 200.0 µM

Compared with `Br.Cc1ccnc(Nc2nc(-c3ccccc3)cs2)c1`, `Cc1ccc2nc(N3CCN(CCO)CC3)nc(-c3ccccc3)c2c1` is higher in solubility kinetic: 0.4 µg/mL for the first, over 52.3 µg/mL for the second.

Going from `COC(=O)C1CSC(C)(C)C(=O)N1` (stereo not given) to `CCOC(=O)C1CCN(C(=O)c2cc3c(C)cc(C)cc3[nH]2)CC1`, the solubility kinetic falls from over 30.5 µg/mL to 7.7 µg/mL (≈ 23.4 µM).

Compared with `CC(=O)c1c(COC(=O)c2ccccc2Cl)nc2ccccc2[n+]1[O-]`, `O=C(O)Cn1c(=O)c(-c2ccccc2)nc2ccccc21` is higher in solubility kinetic: 15.9 µg/mL (≈ 44.6 µM) for the first, over 42 µg/mL for the second.

`S=C(CN1CCCC1=S)NCCc1ccccc1` and `Cl.O=C(CCN1CCOCC1)NCc1ccccc1` cannot be ordered by solubility kinetic: over 41.8 µg/mL for the first, over 42.7 µg/mL for the second.

Going from `O=C(O)CCCN1C(=O)c2cccc3cccc(c23)C1=O` to `C=CCC1c2cccc(C(=O)O)c2C(=O)N1c1cccc(OC)c1` (stereo not given), the solubility kinetic rises from 31.8 µg/mL (≈ 112 µM) to over 48.5 µg/mL.

Compared with `COc1cc(NC(=O)c2cccnc2SC)cc(OC)c1`, `COc1cccc(NC(=O)c2ccc3nc(C)sc3c2)c1` is lower in solubility kinetic: over 45.7 µg/mL for the first, 38.7 µg/mL (≈ 130 µM) for the second.

Compared with `O=C(CN1CCOCC1)Nc1ccccc1C(=O)Nc1ccccc1`, `O=C(Cc1ccccc1)Nc1cccc(NC(=O)c2ccccc2)c1` is 26-fold lower in solubility kinetic: 39.1 µg/mL (≈ 115 µM) for the first, 1.5 µg/mL (≈ 4.54 µM) for the second.

Going from `Nc1nc(Cl)cc(Oc2ccc([N+](=O)[O-])cc2)n1` to `O=c1c2ccccc2ncn1CCOCCOc1ccc([N+](=O)[O-])cc1`, the solubility kinetic rises from 1.5 µg/mL (≈ 5.63 µM) to 17.1 µg/mL (≈ 48.1 µM) (11-fold).

Going from `COc1ccc(CC(=O)OCC(=O)NCc2ccc(F)cc2)cc1` to `COc1ccc(CNC(=O)COC(=O)c2ccc3ccccc3n2)cc1`, the solubility kinetic falls from over 49.7 µg/mL to 16.3 µg/mL (≈ 46.5 µM).

Going from `COc1cc(C(=S)N2CCOCC2)cc(OC)c1OC` to `COc1cc(/C=C/C(=O)Nc2ccc(OC)c(S(=O)(=O)N3CCOCC3)c2)ccc1OC(F)F`, the solubility kinetic falls from over 44.6 µg/mL to 2.6 µg/mL (≈ 5.22 µM).

First: Cc1cccc(Cn2c(=O)oc3ccc(C)cc32)c1
Second: Cc1ccc(C)c(NC(=S)Nc2cccnc2)c1
The solubility kinetic of the first is lower: 4.5 µg/mL (≈ 17.8 µM) for the first, over 38.6 µg/mL for the second.

`O=C(OCc1cccc(C(F)(F)F)c1)c1ccc[nH]c1=O` and `CN(Cc1ccccc1Cl)C(=O)c1cnccc1C(F)(F)F` cannot be ordered by solubility kinetic: over 44.6 µg/mL for the first, over 49.3 µg/mL for the second.

Compared with `COC(=O)c1ccc(NC(=O)c2cc[n+](Cc3ccccc3)cc2)cc1.[Cl-]`, `CC(=O)Nc1ccc(SCC(=O)N(C)CC(=O)Nc2ccccc2Cl)cc1` is higher in solubility kinetic: 50.7 µg/mL for the first, over 60.9 µg/mL for the second.

`Cc1nn(CCCC(=O)Nc2ccccn2)c(C)c1[N+](=O)[O-]` and `CCOc1ccc(S(=O)(=O)NCc2ccccn2)c(C)c1C` cannot be ordered by solubility kinetic: over 45.5 µg/mL for the first, over 48.1 µg/mL for the second.

Going from `Cc1cccc(NC(=O)Nc2ccc(S(N)(=O)=O)cc2)c1` to `CC(=O)Nc1ccc(S(=O)(=O)Nc2nccs2)cc1`, the solubility kinetic rises from 22.1 µg/mL (≈ 72.4 µM) to over 44.6 µg/mL.

`O=c1[nH]c(SCCN2CCOCC2)nc(O)c1-c1ccccc1` and `COc1ccccc1OCCCCN1CCCCC1` are within 1.5-fold of each other in solubility kinetic: 44.2 µg/mL (≈ 133 µM) for the first, 36.1 µg/mL (≈ 137 µM) for the second.

First: COc1ccc(CNC(=O)CCc2c[nH]c3ccccc23)cc1
Second: COc1ccc2c(CC(=O)Nc3ccc(OC)nc3)coc2c1
The solubility kinetic of the first is 1.7-fold higher: 24.6 µg/mL (≈ 79.8 µM) for the first, 14.8 µg/mL (≈ 47.4 µM) for the second.

Going from `CCOc1ncccc1C(=O)Nc1cc2c(cc1Br)OCCO2` to `CC(NC(=O)Nc1cccc([N+](=O)[O-])c1)c1ccc2c(c1)OCO2` (stereo not given), the solubility kinetic falls from 6.5 µg/mL (≈ 17.1 µM) to 2.2 µg/mL (≈ 6.68 µM) (3-fold).

First: CC(C)(C)c1ccc(C(=O)NC(=S)N2CCCCCC2)cc1
Second: CCOc1ccc(OCc2ccc(C(=O)N3CCCCC3)o2)cc1
The solubility kinetic of the first is lower: 10.1 µg/mL (≈ 31.7 µM) for the first, over 49.4 µg/mL for the second.

First: Cc1cc(C)c2c(CN3CC(C)OC(C)C3)cc(=O)oc2c1C (stereo not given)
Second: Cc1ccc(S(=O)(=O)N2CCC3(CC2)OCCO3)c(C)c1
The solubility kinetic of the first is lower: 13.6 µg/mL (≈ 43.1 µM) for the first, over 46.7 µg/mL for the second.

Compared with `O=c1c2ccccc2ncn1-c1ccccc1[N+](=O)[O-]`, `CCn1nc(C(C)C(=O)O)c2ccccc2c1=O` (stereo not given) is higher in solubility kinetic: 35.9 µg/mL (≈ 134 µM) for the first, over 36.9 µg/mL for the second.

Compared with `CCOc1ccc(-c2c(C)sc3nc[nH]c(=O)c23)cc1`, `COc1ccc(NC(=O)CSc2nncn2C)cc1` is higher in solubility kinetic: 24.6 µg/mL (≈ 85.9 µM) for the first, over 41.7 µg/mL for the second.

Compared with `CCOC(=O)c1cnc2cc(F)c(F)cc2c1N1CCOCC1`, `Cc1ccc(-c2nc(C#N)c(N3CCC(C(N)=O)CC3)o2)cc1` is 25-fold lower in solubility kinetic: 39.4 µg/mL (≈ 122 µM) for the first, 1.6 µg/mL (≈ 5.16 µM) for the second.

`COc1ccc(OC)c(NC(=O)CC2(CC(=O)O)CCCC2)c1` and `COc1ccc(C(=O)CSc2nnc3ccccn23)cc1OC` cannot be ordered by solubility kinetic: over 48.2 µg/mL for the first, over 49.4 µg/mL for the second.

`S=C(Nc1cccnc1)NC1CC2CCC1C2` (stereo not given) and `O=C(NC1CCCC1)C1CCCN1C(=O)Oc1ccccc1` (stereo not given) cannot be ordered by solubility kinetic: over 37.1 µg/mL for the first, 41.9 µg/mL (≈ 139 µM) for the second.

`COc1ccc(C(=O)N2CCN(c3ccc(C(C)=O)cc3)CC2)cc1S(=O)(=O)N1CCCC1` and `CCOC(=O)C1CCCN(C(=O)c2ccccc2NS(=O)(=O)c2ccc(F)cc2)C1` (stereo not given) cannot be ordered by solubility kinetic: over 70.7 µg/mL for the first, over 65.2 µg/mL for the second.

Going from `CCCSc1ccc2nc(NC(=O)OC)[nH]c2c1` to `CNc1ccc(Cl)cc1C(N)=O`, the solubility kinetic rises from 1.4 µg/mL (≈ 5.28 µM) to over 27.7 µg/mL.

Going from `CC(SC1=NCCN1S(C)(=O)=O)c1ccccc1` (stereo not given) to `CC1CCCC(C)N1CC(O)COCc1ccccc1.Cl` (stereo not given), the solubility kinetic rises from 42.5 µg/mL (≈ 149 µM) to over 47.1 µg/mL.

`CCCCOP(=O)(OCCCC)C(O)c1ccc(N(C)C)cc1` (stereo not given) and `N#Cc1ccc(NC(=O)COC(=O)c2cccnc2Cl)cc1` cannot be ordered by solubility kinetic: over 51.5 µg/mL for the first, over 47.4 µg/mL for the second.

Compared with `CN1C(=O)C2(OCC(CO)([N+](=O)[O-])CO2)c2ccccc21` (stereo not given), `O=C(CSc1ncccn1)NC1CCS(=O)(=O)C1` (stereo not given) is lower in solubility kinetic: over 44.1 µg/mL for the first, 39.7 µg/mL (≈ 138 µM) for the second.
